Test results taken from patent publication US11691989B2, “Macrocyclic indoles as Mcl-1 inhibitors” (ASCENTAGE PHARMA (SUZHOU) CO., LTD., priority 2018, dated 2023).
Values after ≈ are worked out from the molar mass of the structure shown. Like-named read-outs stand apart in the source and are kept apart here.

What was measured:
[1] = target: Mcl-1 protein (residues 171-323) (Homo sapiens (Human), UniProt Q07820); test: Inhibition of Mcl-1 by fluorescence polarization (FP) competitive binding assay with FAM-Bid tracer; settings: 2 nM FAM-Bid, 20 nM Mcl-1, 30 min, read-out: Mc1-1 (FP)
In short: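 Competitive FP binding of compounds against FAM-Bid tracer (final 2 nM) on Mcl-1 (final 20 nM) in PBS with 0.01% BGG and 0.01% Triton X-100, 5% final DMSO.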

[2] = system: OPM-2 cells; test: Cell viability assay (OPM-2 cells), CCK-8; type: cell-based; settings: 5% FBS
In short: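 OPM-2 myeloma cells (20000/well) incubated with serially diluted compound for 24 h at 37 °C, 5% CO2. Viability read by CCK-8 (4 h) absorbance at 450 nm, normalised to vehicle; IC50 from nonlinear regression.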

[3] = system: NCI-H929 cells; test: Cell viability assay (NCI-H929 cells), CCK-8; type: cell-based; settings: 5% FBS
In short: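 NCI-H929 cells (20000/well) exposed to serially diluted compounds for 24 h at 37 °C, 5% CO2. Viability by CCK-8, absorbance at 450 nm after 1-4 h, normalized to vehicle-treated cells. IC50 by nonlinear regression.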

[4] = Microsome clearance assay, mouse; type: in vitro ADME; settings: 0.5 mg/ml protein, 1 mM NADPH, 60 minutes; for Mouse Liver Microsome Clint (μL/min/mg protein): mouse liver microsomes, 5 μM; for microsomal CLint at 5 μM: male, CD-1, mouse, pooled liver microsomes, pH 7.4, mouse liver microsomes, read-out: Mouse Liver Microsome Clint (μL/min/mg protein)
Experimental: (§1) Representative Compounds of the Disclosure were tested in a microsome clearance assay. Pooled liver microsomes (20 mg/ml) from human, male Wister rat, and male CD-1 mouse were obtained from BD Bioscience (Franklin Lakes, N.J. USA). Incubation reaction mixtures contained a final concentration of 0.1M sodium phosphate buffer (pH 7.4), 0.5 mg/ml microsomal protein, 5 μM of test sample and 1 mM NADPH in a total volume of 400 μl. The incubations were done for 60 minutes and 300 μl of the mixtures was transferred to 150 μl of ice cold methanol to terminate reactions. After vortexes for 3 minutes and centrifuged at 4000 rpm at 4° C. for 10 minutes, the clear supernatant was used directly for analysis. The samples were analyzed by Applied Biosystems API 3200 Q TRAP LC/MS/MS system using electrospray ionization mode.

[5] = Microsome clearance assay, rat; type: in vitro ADME; settings: 0.5 mg/ml protein, 1 mM NADPH, 60 minutes; for microsomal CLint at 5 μM: male, Wister, rat, pooled liver microsomes, pH 7.4, rat liver microsomes, read-out: Rat Liver Microsome Clint (μL/min/mg protein)
Experimental: as §1

[6] = Microsome clearance assay, human; type: in vitro ADME; settings: 0.5 mg/ml protein, 1 mM NADPH, 60 minutes; for microsomal CLint at 5 μM: human, pooled liver microsomes, pH 7.4, human liver microsomes, read-out: Human Liver Microsome Clint (μL/min/mg protein)
Experimental: as §1

[7] = system: MV-4-11 cells; test: MV-4-11 cell viability assay, CCK-8; type: cell-based
Experimental: MV-4-11 cells were obtained from American Type Culture Collection (ATCC). […]
The effect of representative Compounds of the Disclosure on cell viability was determined using Cell Counting Kit-8 (CCK-8) assay according to the manufacturer's instructions. 95 μL of MV-4-11 cell suspension (20000 cells/well) in culture medium were seeded into 96-well plates and cultured 4 hrs. Each tested compound was serially diluted in DMSO, then 5 μL of the compound or DMSO was diluted in 95 μL medium once more. At last, 5 μL of the compound dilution was added to the corresponding well of the cell plate. After the addition of the tested compound, the cells were incubated at 37° C. in an atmosphere of 5% CO2 for 24 hrs. At the end, 10 μL of CCK-8 solution was added to each well of the plate and incubated for 1-4 hrs. The plates were read at 450 nm on the microplate reader (BioTek Synergy 1MF). The readings were normalized to the vehicle cells, and the IC50 was calculated by nonlinear regression analysis using GraphPad Prism 6 software.

[8] = Kinetic solubility assay in PBS buffer; type: physicochemical; settings: PBS buffer, pH 6.5, aqueous buffer, thermodynamic from solid, read-out: Solubility (pH 6.5, μg/mL)
Experimental: Representative Compounds of the Disclosure were tested in a kinetic solubility assay in PBS buffer. PBS buffer was prepared by dissolving 4.86 g of potassium dihydrogen phosphate and 5.09 g of disodium hydrogen phosphate dodecahydrate in 1 L of ultrapure water (final pH 6.5). 0.5 mg of test sample was dissolved in 1 mL of methanol and the stock solution was transferred into 2 mL EP tube, and evaporated at 50° C. for 3 h. To the tube was added 1 mL of PBS buffer and the mixture was stirred and shaken for 1-2 h. The solution was allowed to stand overnight and then filtered before HPLC analysis. Another 1.5 mg of the sample was dissolved in 3 mL of methanol to prepare a calibration curve with a series of concentration range of 5-500 μM. The solubility of each sample was determined by the measured peak area in HPLC.

Chain of Mcl-1 protein (residues 171-323) (Q07820 171-323): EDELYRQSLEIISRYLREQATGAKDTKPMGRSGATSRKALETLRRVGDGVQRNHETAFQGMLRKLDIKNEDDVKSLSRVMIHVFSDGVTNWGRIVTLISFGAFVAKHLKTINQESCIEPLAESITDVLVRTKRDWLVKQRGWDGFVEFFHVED

SMILES	IC50 [1] [nM]	IC50 ([2]; 24 hours) [nM]	IC50 ([3]; 24 hrs) [nM]	Mouse Liver Microsome Clint (μL/min/mg protein) [4] [μL/min/mg protein]	Rat Liver Microsome Clint (μL/min/mg protein) ([5]; rat liver microsomes, 5 μM)	Human Liver Microsome Clint (μL/min/mg protein) ([6]; human liver microsomes, 5 μM)	IC50 ([7]; read-out: MV-4-11 IC50 (5% FBS), MV-4-11 cells, 5% FBS, 24 hrs, CCK-8) [nM]	IC50 ([2]; Homo sapiens, OPM-2, 24 h) [nM]	IC50 ([3]; Homo sapiens, NCI-H929, 24 h) [nM]	microsomal CLint at 5 μM [4] [µL/min/mg]	microsomal CLint at 5 μM [5] [µL/min/mg]	microsomal CLint at 5 μM [6] [µL/min/mg]	solubility [8] [µg/mL]	IC50 ([7]; Homo sapiens, MV4-11, 24 h, read-out: MV-4-11 IC50 (5% FBS, nM), MV-4-11 cells, 5% FBS, 24 hrs, CCK-8) [nM]
Cc1c(C(=O)O)n2c3ccc(Cl)c(c13)-c1c(nn(C)c1C)CSCc1cc(n(C)n1)CSc1cc(c3ccccc3c1)OCCC2 (atropisomer, axis not shown) [Cpd. No. 6, (R)-(Z)-1^5-chloro-1^3,2^1,2^5,6^1-tetramethyl-1^1H,2^1H,6^1H-10-oxa-4,8-dithia-1(4,1)-indola-2(4,3), 6(3,5)-dipyrazola-9(3,1)-naphthalenacyclotridecaphane-1^2-carboxylic acid]	9	136	39	23.6	21.0	<2.8	29							
Cc1c(C(=O)O)n2c3ccc(Cl)c(c13)-c1c(nn3c1CCC3)CSCc1cc(n(C)n1)CSc1cc(c3ccc(F)cc3c1)OCCC2 [Cpd. No. 2, (Z)-1^5-chloro-9^6-fluoro-1^3,6^1-dimethyl-2^5,2^6-dihydro-1^1H,2^4H,6^1H-10-oxa-4,8-dithia-1(4,1)-indola-2(3,2)-pyrrolo[1,2-b]pyrazola-6(3,5)-pyrazola-9(3,1)-naphthalenacyclotridecaphane-1^2-carboxylic acid]	14							220	53	53	31.2	18.2	< 1	
Cc1c(C(=O)O)n2c3ccc(Cl)c(c13)-c1c(nn3c1COCC3)CSCc1cc(n(C)n1)CSc1cc(c3ccc(F)cc3c1)OCCC2 [Cpd. No. 4, (Z)-1^5-chloro-9^6-fluoro-1^3,6^1-dimethyl-2^6,2^7-dihydro-1^1H,24H,6^1H-10-oxa-4,8-dithia-2(3,2)-pyrazolo[5,1-c][1,4]oxazina-1(4,1)-indola-6(3,5)-pyrazola-9(3,1)-naphthalenacyclotridecaphane-1^2-carboxylic acid]	14							438	49	41.2	19.8	13.8	< 1	
COCCn1nc2c(c1C)-c1c(Cl)ccc3c1c(C)c(C(=O)O)n3CCCOc1cc(cc3ccccc13)SCc1cc(nn1C)CSC2 [Cpd. No. 11, (Z)-1^5-chloro-2^1-(2-methoxyethyl)-1^3,2^5,6^1-trimethyl-1^1H,2^1H,6^1H-10-oxa-4,8-dithia-1(4,1)-indola-2(4,3),6(3,5)-dipyrazola-9(3,1)-naphthalenacyclotridecaphane-1^2-carboxylic acid]	15							171	68	145	35.4	39.6	< 1	
Cc1c(C(=O)O)n2c3ccc(C#N)c(c13)-c1c(nn(C)c1C)CSCc1cc(n(C)n1)CSc1cc(c3ccc(F)cc3c1)OCCC2 [Cpd. No. 20, (Z)-1^5-cyano-9^6-fluoro-1^3,2^1,2^5,6^1-tetramethyl-1^1H-1,2^1H,6^1H-10-oxa-4,8-dithia-1(4,1)-indola-2(4,3),6(3,5)-dipyrazola-9(3,1)-naphthalenacyclotridecaphane-1^2-carboxylic acid]	14							613	611					45
CNC(=O)Cn1nc(C)c2c1CSCc1cc(n(C)n1)CSc1cc(c3ccccc3c1)OCCCn1c(C(=O)O)c(C)c3c-2c(Cl)ccc31 [Cpd. No. 26, (Z)-1^5-chloro-1^3,2^3,6^1-trimethyl-2^1-(2-(methylamino)-2-oxoethyl)-1^1H,2^1H,6^1H-10-oxa-4,8-dithia-1(4,1)-indola-2(4,5),6(3,5)-dipyrazola-9(3,1)-naphthalenacyclotridecaphane-1^2-carboxylic acid]	14							992	300	41.2	14.2	12.8	< 1	
Cc1c(C(=O)O)n2c3ccc(Cl)c(c13)-c1c(nn(C)c1C)CN(S(C)(=O)=O)Cc1cc(n(C)n1)CSc1cc(c3ccc(F)cc3c1)OCCC2 [Cpd. No. 32, (Z)-1^5-chloro-9^6-fluoro-1^3,2^1,2^5,6^1-tetramethyl-4-(methylsulfonyl)-1^1-H,2^1H, 6′H-10-oxa-8-thia-4-aza-1(4,1)-indola-2(4,3),6(3,5)-dipyrazola-9(3,1)-naphthalenacyclotridecaphane-1^2-carboxylic acid]	36	542	213	35.0							10.8	4.4	> 400	
Cc1c(C(=O)O)n2c3ccc(Cl)c(c13)-c1c(nn(C)c1C(F)F)CN(S(C)(=O)=O)Cc1cc(n(C)n1)CSc1cc(c3ccc(F)cc3c1)OCCC2 [Cpd. No. 45, (Z)-1^5-chloro-2^5-(difluoromethyl)-9^6-fluoro-1^3,2^1,6^1-trimethyl-4-(methylsulfonyl)-1^1H,2^1H,6^1H-10-oxa-8-thia-4-aza-1(4,1)-indola-2(4,3),6(3,5)-dipyrazola-9(3,1)-naphthalenacyclotridecaphane-1^2-carboxylic acid]	16							350	253	21.4	12.6	< 2.8	94 (≈ 119 µM)	
Cc1c(C(=O)O)n2c3ccc(Cl)c(c13)-c1c(nn(C)c1C)CN(Cc1ncco1)Cc1cc(n(C)n1)CSc1cc(c3ccc(F)cc3c1)OCCC2 [Cpd. No. 52, (Z)-1^5-chloro-9^6-fluoro-1^3,2^1,2^5,6^1-tetramethyl-4-(oxazol-2-ylmethyl)-1^1H,2^1H,6^1H-10-oxa-8-thia-4-aza-1(4,1)-indola-2(4,3),6(3,5)-dipyrazola-9(3,1)-naphthalenacyclotridecaphane-1^2-carboxylic acid]	21							699	87	53	29.8	28.4	4 (≈ 5.3 µM)	
